According to patent publication EP0951284B1, “[…] DERIVATIVES” (priority 1996, dated 1998):
Where a name gives a salt, the structure may show the parent alone.

How the values were obtained:
MAO-B [1] = target: T1, MAO-B (Rattus norvegicus, UniProt P19643); assay: Inhibition of MAO activity in vitro, rat brain homogenate, PEA substrate; format: biochemical; parameters: The MAO enzyme source was a homogenate of rat brain in 0.3M sucrose; from tissue; host or cells: rat brain homogenate (600G supernatant); details: PEA 50µM
T1 sequence (P19643 1-520): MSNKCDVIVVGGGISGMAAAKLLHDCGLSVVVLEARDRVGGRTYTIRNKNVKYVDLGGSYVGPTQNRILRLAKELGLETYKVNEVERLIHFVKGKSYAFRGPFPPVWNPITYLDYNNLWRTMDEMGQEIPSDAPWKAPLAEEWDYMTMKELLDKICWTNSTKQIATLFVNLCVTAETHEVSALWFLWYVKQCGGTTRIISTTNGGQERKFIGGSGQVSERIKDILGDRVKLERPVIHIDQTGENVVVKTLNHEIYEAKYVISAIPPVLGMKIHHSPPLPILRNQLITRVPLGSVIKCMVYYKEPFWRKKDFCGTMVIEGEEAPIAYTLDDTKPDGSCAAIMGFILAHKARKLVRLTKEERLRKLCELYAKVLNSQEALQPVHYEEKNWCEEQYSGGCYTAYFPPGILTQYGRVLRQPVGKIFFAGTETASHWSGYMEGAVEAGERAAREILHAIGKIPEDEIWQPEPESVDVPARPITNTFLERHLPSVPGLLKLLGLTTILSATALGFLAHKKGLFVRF
Method: The MAO enzyme source was a homogenate of rat brain in 0.3M sucrose, which was centrifuged at 600G for 15 minutes. The supernatant was diluted appropriately in 0.05M phosphate buffer, and pre-incubated with serial dilutions of test compounds for 20 minutes at 37°C. ^14C-Labeled substrates (2-phenylethylamine, hereinafter PEA; 5-hydroxytryptamine, hereinafter 5-HT) were then added, and the incubation continued for a further 20 minutes (PEA), or 30-45 minutes (5-HT). Substrate concentrations used were 50µM (PEA) and 1mM (5-HT). In the case of PEA, enzyme concentration was chosen so that not more than 10% of the substrate was metabolized during the course of the reaction. The deaminated products were extracted into toluene-ethyl acetate (1:1, v/v) containing 0.6% (w/v) 2,5-diphenyloxazole prior to determination by liquid scintillation counting. Radioactivity in the eluate indicates the production of neutral and acidic metabolites formed as a result of MAO activity. Activity of MAO in the sample was expressed as a percentage of control activity in the absence of inhibitors after subtraction of appropriate blank values The activity determined using PEA as substrate is referred to as MAO-B, and that determined using 5-HT as MAO-A.

[2] = Acute toxicity in mice (sub-cutaneous, lethality within 6 hours); details: mouse, in vivo, sc; for selectivity ratio: LD50 divided by ED50 (acetylcholine esterase ex vivo), read-out: Therapeutic Ratio (LD/AC); for LD50 at 6 h: sub-cutaneous, mice, within 6 hours
Method: Drugs were administered sub-cutaneously in at least 3 doses, to a minimum of 10 mice per dose. […] Therapeutic Ratio was calculated as LD50 divided by ED50(acetylcholine esterase ex vivo).

whole brain AChE = target: T2, whole brain AChE (Mus musculus, UniProt P21836); assay: Ex vivo measurement of brain AChE inhibition after sub-cutaneous administration; format: in vivo, mice; details: for Time to peak activity t / Time to return to 50% of peak t: AChE inhibition; for ED50: sc, sub-cutaneous, mouse whole brain, at peak of activity, read-out: AChE Inhibition Ex vivo ED50 (AC)
T2 construct: the brains rapidly removed (minus cerebellum), weighed and homogenized in 0.1M phosphate buffer pH 8.0; from tissue; host or cells: mouse brain (minus cerebellum) homogenate supernatant
T2 sequence (P21836 32-614): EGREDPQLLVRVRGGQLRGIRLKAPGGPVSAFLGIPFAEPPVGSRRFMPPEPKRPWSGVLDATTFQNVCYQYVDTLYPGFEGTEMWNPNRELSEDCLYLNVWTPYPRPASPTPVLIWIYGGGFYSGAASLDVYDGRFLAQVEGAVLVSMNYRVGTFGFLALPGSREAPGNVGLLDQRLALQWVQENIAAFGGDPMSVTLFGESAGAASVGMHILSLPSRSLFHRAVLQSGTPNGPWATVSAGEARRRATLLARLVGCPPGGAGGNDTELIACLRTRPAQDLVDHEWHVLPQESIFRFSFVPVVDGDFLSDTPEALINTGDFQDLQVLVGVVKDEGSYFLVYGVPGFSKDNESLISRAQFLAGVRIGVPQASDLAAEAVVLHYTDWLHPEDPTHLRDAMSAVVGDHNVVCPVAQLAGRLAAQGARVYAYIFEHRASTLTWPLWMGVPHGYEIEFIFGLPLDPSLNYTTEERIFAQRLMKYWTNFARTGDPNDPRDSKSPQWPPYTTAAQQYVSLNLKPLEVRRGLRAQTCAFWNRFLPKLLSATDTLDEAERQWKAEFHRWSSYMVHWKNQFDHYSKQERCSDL
Method: Test drugs or saline were administered sub-cutaneously to male mice (Sabra strain, 28-35g). At least 4-5 mice were used per dose and a minimum of 3 doses per drug were tested. The mice were sacrificed 15, 30, 60, 70, 90, 120 or 180 minutes after drug administration, the brains rapidly removed (minus cerebellum), weighed and homogenized in 0.1M phosphate buffer pH 8.0, containing Triton (1mg/100g tissue) and centrifuged to remove cell debris. Aliquots (25 µl) of the supernatant were then incubated with acetylthiocholine and DTNB. AChE activity measured as described above. The % inhibition of whole brain AChE by each dose of drug was calculated by comparison with enzyme activity from 3 saline treated control mice run at the same time.

mice = assay: Survival time of mice in hypobaric hypoxic episode; format: in vivo
Description: The model is based on that described in Nakanishi, M. et al. Life Sci. (1973) 13: 467; Oshiro, et al., J. Med. Chem. (1991) 34: 2004-2013; and US Patent 4,788,130.
A 12 liter desiccator (desiccator A) and a 2.5 liter desiccator (desiccator B) were separately connected to a vacuum pump. Desiccator B was disconnected and allowed to equilibrate with room air whilst desiccator A was evacuated to a pressure of 100mmHg. Four male ICR albino mice (22-28g) were placed in desiccator B. Desiccator B was then closed to room air and connected to desiccator A. The pressure inside desiccator B was monitored using a mercury manometer and at the point the pressure in desiccator B reached 200mmHg (usually within 14 seconds), the two desiccators were disconnected from the vacuum pump and the pump switched off. The survival time from the moment of induction of hypoxia to the time of cessation of respiration was recorded. for each mouse for a maximum of 15 minutes after which time room air was reintroduced to desiccator B. Survivors were monitored for signs of lethargy or vitality.
Effect of drug treatment was assessed as the percent of the survival time of the drug treated group with respect to the saline injected or vehicle injected control group. Control groups were run twice, before and after each experimental group and consisted of 8 mice in groups of 4 mice to ensure a constant residual volume of oxygen in all tests. The effect of each dose of test drug was determined in duplicate i.e. two groups of 4 mice.
Positive reference drugs were sodium pentobarbital at a dose of 40 mg/kg, and diazepam 10 mg/kg given 0.5h prior to hypoxia, physostigmine 0.2 and 0.4 mg/kg and neostigmine 0.2 mg/kg given sc 30 min before hypoxia. Methyl atropine 1 mg/kg was given sc. 10 min. before physostigmine.
The volume of injection was 0.2-0.3 mL per mouse (10 mL/kg). The initial dose was about one third of the reported LD50 for acetylcholine esterase inhibition. If no protection could be obtained, the dose was further increased to the nearest non-toxic dose. In case of protection, the dose was further reduced in an attempt to locate the "protective" dose range.

MAO-B [3] = assay: Inhibition of MAO activity ex vivo (brain tissue), PEA substrate; format: in vivo, mice; details: mouse brain tissue
Method: Male Sabra mice, weighing 45-50g were injected with test compound solutions (prepared in 0.9% saline). Each dose was administered to two or three mice. The mice were sacrificed two hours after drug administration or at a time corresponding to the peak AChE inhibition time (see Table 6). The brain and liver were rapidly dissected and stored in appropriate vials on ice. The tissues were weighed, diluted to 1/20 in sucrose 0.3M and stored at -20°C before performance of the MAO assay described above. The results given in Table 6 relate to measurements made on brain tissue only.

[4] = 4.1 mg/kg sc, 60 min before hypoxia
[5] = 6.2 mg/kg sc, 60 min before hypoxia

Structure (SMILES)	IC50 (MAO-B [1])	selectivity ratio [2]	LD50 at 6 h [2]	Time to peak activity t (whole brain AChE)	Time to return to 50% of peak t (whole brain AChE)	ED50 (whole brain AChE)	Protection (% of control) (mice; 4.5 mg/kg sc, 60 min before hypoxia)	Protection (% of control) (mice; 7 mg/kg sc, 60 min before hypoxia)	MAO-B Inhibition Ex vivo ED50 (MAO-B [3])	Protection (% of control) (mice; [4])	Protection (% of control) (mice; [5])	Protection (% of control) (mice; 15 mg/kg sc, 60 min before hypoxia)	Protection (% of control) (mice; 31 mg/kg sc, 60 min before hypoxia)	Protection (% of control) (mice; 62 mg/kg sc, 60 min before hypoxia)	Protection (% of control) (mice; 94 mg/kg sc, 60 min before hypoxia)	Protection (% of control) (mice; 2 mg/kg sc, 30 min before hypoxia)	Protection (% of control) (mice; 2 mg/kg sc, 60 min before hypoxia)	Protection (% of control) (mice; 4.1 mg/kg sc, 30 min before hypoxia)
C#CCN(C)CCc1cccc(OC(=O)N(C)C)c1 [Compound 12]	2.5 µM	11.5	46 µmol/kg	15 to 30 min	120 min	2.8 µmol/kg	97±36 % of control	217±120 % of control	21 µmol/kg									
C#CCNC(C)Cc1cccc(OC(=O)N(C)C)c1 (centres unmarked) [Compound 16]	6 µM	18.3	42 µmol/kg	15 min	70 min	2.3 µmol/kg			>20 µmol/kg	335±202 % of control	324±155 % of control	toxic						
C#CCNC(C)Cc1cccc(OC(=O)N(C)CC)c1 (stereo not drawn) [Compound 17, 3-(N-Me,N-Etcarbamyloxy)α-methyl, N-propargyl phenethylamine.HCl]	2 µM	9.4	600 µmol/kg	30 to 60 min	120 min	64 µmol/kg			40 µmol/kg				149±44 % of control	419±122 % of control	281±158 % of control			
C#CCNCCc1cccc(OC(=O)N(C)C)c1 [Compound 11]	25 µM	13.8	44.2 µmol/kg	15 min	70 min	3.2 µmol/kg			>>30 µmoles/kg	416±211 % of control	331±168 % of control					302±212 % of control	128±40 % of control	501±201 % of control
